Reference: US8173653B2, “Pyridiazinone derivatives for the treatment of tumours” (Merck Patent Gesellschaft MIT Beschraenkter Haftung, priority 2005, dated 2012)

Key:
Met kinase = target: T1, Met kinase (Homo sapiens, UniProt P08581); test: Met kinase inhibition (enzyme assay), flashplate method; assay type: biochemical
T1 construct: 6His (N); purchased Upstate 14-526; host or cells: insect cells (Sf21; S. frugiperda), baculovirus
Procedure: Flashplate Method (Met Kinase)
The test plates used are 96-well Flashplate® microtitre plates from Perkin Elmer (Cat. No. SMP200). The components of the kinase reaction described below are pipetted into the assay plate. The Met kinase and the substrate poly Ala-Glu-Lys-Tyr, (PAGLT, 6:2:5:1), are incubated for 3 hrs at room temperature with radioactively labelled ^33P-ATP in the presence and absence of test substances in a total volume of 100 μl. The reaction is terminated using 150 μl of a 60 mM EDTA solution. After incubation for a further 30 min at room temperature, the supernatants are filtered off with suction, and the wells are washed three times with 200 μl of 0.9% NaCl solution each time. The measurement of the bound radioactivity is carried out by means of a scintillation measuring instrument (Topcount NXT, Perkin-Elmer).
The full value used is the inhibitor-free kinase reaction. This should be approximately in the range 6000-9000 cpm. The pharmacological zero value used is staurosporin in a final concentration of 0.1 mM. The inhibitory values (IC50) are determined using the RS1_MTS program.
Kinase reaction conditions per well: • 30 μl of assay buffer • 10 μl of substance to be tested in assay buffer with 10% of DMSO • 10 μl of ATP (final concentration 1 μM cold, 0.35 μCi of ^33P-ATP) • 50 μl of Met kinase/substrate mixture in assay buffer; (10 ng of enzyme/well, 50 ng of pAGLT/well)
Assay Buffer: • 50 mM HEPES • 3 mM magnesium chloride • 3 μM sodium orthovanadate • 3 mM manganese(II) chloride • 1 mM dithiothreitol (DTT) • pH=7.5 (to be set using sodium hydroxide)

TPR-Met/NIH3T3 cells = test: In-vivo test: subcutaneous TPR-Met/NIH3T3 tumour in Balb/C mice, tumour volume; conditions: female Balb/C mice, 200 mg/kg daily by gastric tube, 9 days
Procedure: Experimental procedure: Female Balb/C mice (breeder: Charles River Wiga) were 5 weeks old on arrival. They were acclimatised to our keeping conditions for 7 days. Each mouse was subsequently injected subcutaneously in the pelvic area with 4 million TPR-Met/NIH3T3 cells in 100 μl of PBS (without Ca++ and Mg++).
Measurement of the tumour volume: The length (L) and breadth (B) were measured using a Vernier calliper, and the tumour volume was calculated from the formula L×B×B/2.
Keeping conditions: 4 or 5 animals per cage, feeding with commercial mouse food (Sniff).

T1 sequence (P08581 974-1390 limits assumed): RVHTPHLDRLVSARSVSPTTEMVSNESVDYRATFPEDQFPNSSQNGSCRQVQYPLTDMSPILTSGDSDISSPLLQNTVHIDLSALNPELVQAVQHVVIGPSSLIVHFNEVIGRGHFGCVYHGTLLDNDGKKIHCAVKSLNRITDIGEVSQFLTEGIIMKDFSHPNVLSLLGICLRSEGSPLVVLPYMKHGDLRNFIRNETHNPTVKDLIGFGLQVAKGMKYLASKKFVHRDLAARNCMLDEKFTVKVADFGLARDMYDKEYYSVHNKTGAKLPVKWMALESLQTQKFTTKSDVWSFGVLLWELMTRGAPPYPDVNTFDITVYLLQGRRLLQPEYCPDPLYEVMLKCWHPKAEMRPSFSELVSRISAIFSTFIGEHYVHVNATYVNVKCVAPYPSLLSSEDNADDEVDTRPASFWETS

IC50 (Met kinase): 10 to 1000 nM
SMILES: CN1CCN(CCCOC(=O)Nc2cccc(Cn3nc(-c4cc(F)cc(F)c4)ccc3=O)c2)CC1 [A91, 3-(4-Methylpiperazin-1-yl)propyl {3-[3-(3,5-difluorophenyl)-6-oxo-6H-pyridazin-1-ylmethyl]phenyl}carbamate]
antitumoural action (tumour volume) (TPR-Met/NIH3T3 cells): significant antitumoural action
